According to ChEMBL document CHEMBL3507680, “University of Dundee, Gates Library screen for HepG2 cell viability”:

assay: Human HepG2 cell viability assay in 384 well format; type: toxicity, cell-based; set-up: dose 125 nL, time 70.5 hour; concentration not given beside the values; details: HepG2 cells, read-out: Inhibition

| SMILES | cytotoxicity at 70.5 h |
| --- | --- |
| CC(Cn1cncn1)NCc1csc2c1CCCC2 (stereo unspecified) | -0.547% |
| CN(C)c1nc2c(c(=O)[nH]1)CCN(C(=O)c1cccc3nccnc13)C2 | 2.31% |
| COCCc1noc(-c2ccc(-c3cc[nH]n3)nc2)n1 | -1.45% |
| CN(Cc1ccc(CCC(C)(C)O)cc1)CC1(CO)CC1 | -10.9% |
| Cc1cc(C2CCCN2Cc2ccc(C(=O)Nc3nccs3)cc2)on1 (stereo unspecified) | -2.76% |
| C[C@@H]1CN(C2(C(=O)N(C)C)Cc3ccccc3C2)C[C@H](C)O1 | 13.4% |
| Fc1ccc2[nH]c3c(c2c1)CCN1C(c2ccccn2)N2CCC31CC2 (stereo unspecified) | 19% |
| CC(c1ccc(F)c(F)c1)N(C)CCS(=O)(=O)CCC(N)=O (stereo unspecified) | -9.48% |
| CC1CCCN1Cc1cccc(C(=O)Nc2ccc3c(c2)CCC3=O)c1 (stereo unspecified) | 5.96% |
| O=C1CC2(CCN(CC3CCOC3)CC2)c2ccccc2N1CC1CC1 (stereo unspecified) | -1.14% |
| CCCn1c(C)c(CC(=O)NC)c2c1CC(C)(C)CC2=O | -6.96% |
| O=C(O)c1ccc(S(=O)(=O)Nc2ccccc2CC(F)(F)F)c(F)c1 | -15.6% |
| O[C@@H]1C[C@@H](c2nc(-c3ccc(F)cc3)no2)N(C2CCOCC2)C1 | -3.33% |
| Cn1cc(NS(=O)(=O)c2ccc3c(c2)CCCC3)ccc1=O | 22.1% |
| CC(C)c1ccc(C(=O)N2CCOCC2CC(=O)c2ccco2)cn1 (stereo unspecified) | -5.67% |
| CN(Cc1nnnn1C1CC1)c1cccc2ccccc12 | 0.192% |
| CNS(=O)(=O)Cc1ccccc1CNc1ccc(C#N)cn1 | 22.4% |
| NC(=O)C1CCN(C(=O)c2ccc(OCc3cscn3)cc2)CC1 | 55.1% |
| Cc1c(CNC(=O)Nc2cccc3c2CCN3C)cnn1C | -3.95% |
| CSc1ncc(C(=O)N2C[C@H]3CC[C@@H]2CN(Cc2ccccc2)C3)cn1 | -1.13% |
| CC(=O)OC1CN(c2nc3c(C)cccc3s2)C1 | -15.1% |
| CN(C)CCC1CCCCN1Cc1cnn(C)c1C1CC1 (stereo unspecified) | 2.52% |
| Cn1cnnc1CNC(=O)c1ccc(Br)cc1O | -3.54% |

| SMILES | cytotoxicity at 70.5 h |
| --- | --- |
| COc1c(CNC(c2ccccc2)c2nccn2C)c(C)nn1C (stereo unspecified) | -0.0475% |
| O=S(=O)(NCCCn1cncn1)c1ccc2c(c1)CCC2 | -5.6% |
| c1ccc(CN2Cc3nccn3CC(Cn3cncn3)C2)nc1 (stereo unspecified) | 2.19% |
| O=C(NCc1ccccc1CN1CCCC1=O)Nc1nncs1 | -7.24% |
| CCCNC(=O)C(C)Oc1ccc(F)cc1 (stereo unspecified) | -12.9% |
| CN(Cc1cccnc1)Cc1cn2c(n1)CN(C1CCOC1)CC2 (stereo unspecified) | -6.14% |
| CC(C)COCC1CN(Cc2ccc3c(c2)OCO3)Cc2ncn(C)c21 (stereo unspecified) | 45.7% |
| N#Cc1ccccc1CN(CCO)Cc1ccsc1 | -14.1% |
| Cc1c(Br)cc2c(c1C)OCC(N(C)C)C2=O (stereo unspecified) | 19.9% |
| CCCn1ncc2c(C(=O)Nc3cnn(CC)c3C)cc(C3CC3)nc21 | 5.37% |
| CC(NCC1CCN(CCO)CC1)c1cccc(Cl)c1 (stereo unspecified) | -2.07% |
| CCCS(=O)(=O)N1C[C@@H](Oc2ncccc2F)[C@H]2OCCC[C@H]21 | -10.6% |
| Cc1cc(C(=O)N2CCCC(N3CCNC3=O)C2)nn1C(C)(C)C (stereo unspecified) | -0.73% |
| CCOCCCC(=O)Nc1[nH]nc(-c2ccncc2)c1C | -9.37% |
| Clc1snnc1CN1CCCCC1Cn1cncn1 (stereo unspecified) | 11.8% |
| Cn1cc(CN2CCc3ncn(C)c3C2COCc2ccccc2)cn1 (stereo unspecified) | 2.01% |
| CN(C)C1(CNc2ncc(Br)cn2)CCOCC1 | -10.2% |
| CCn1nc(C(C)C)cc1C(=O)NCc1nc2ccc(OC)cc2[nH]1 | -14.7% |
| Cc1noc([C@H]2C[C@H]3OCC[C@H]3N(Cc3scnc3C)C2)n1 | -7.11% |
| Cc1ccc(S(=O)(=O)Cc2noc([C@@H]3C[C@@H](O)CN3C(C)C)n2)cc1 | -8.79% |
| CCN1C(=O)CO[C@@H]2CN(C(=O)C3CCOCC3)C[C@H]21 | -6.45% |
| CN1C(=O)C[C@@H]2[C@@H]1CCN2C(=O)c1ccc[nH]1 | -2.89% |
| CCc1cc(N[C@H]2CCC[C@H]2CO)n2nccc2n1 | 6% |

| SMILES | cytotoxicity at 70.5 h |
| --- | --- |
| c1cn(-c2ccc(N3CCC(NC4CC4)CC3)cc2)cn1 | -14.2% |
| O=C1c2cccnc2OC(CN2CCOCC2)CN1Cc1cccs1 (stereo unspecified) | -4.39% |
| CN(C)C[C@H]1C[C@@H]2CN(C(=O)c3ccco3)C[C@@H]2O1 | -2.65% |
| O=C(COc1coc(CN2CCCCCC2)cc1=O)c1ccccc1 | 25.4% |
| Cc1nc(CN2CCCC2c2c(C)nn(C)c2Cl)no1 (stereo unspecified) | -1.31% |
| CC(C)OCCOCc1cccc(NC(=O)N2CCCC(O)C2)c1 (stereo unspecified) | -9.87% |
| COCCn1ccnc1C1CCCN(c2ncnc3c2CCC3)C1 (stereo unspecified) | -0.0473% |
| CC(C)c1noc(CCC(=O)NCC2CCS(=O)(=O)C2)n1 (stereo unspecified) | 1.64% |
| Cc1scc(C(=O)N2CCC3(CCCN(C)C3=O)C2)c1-c1ccccc1 (stereo unspecified) | -11.2% |
| CCC(=O)N1CCCCC1c1nc(CN(C)C(C)=O)cc(N(C)C)n1 (stereo unspecified) | -1.37% |
| COc1c(CNCC(c2cccc(F)c2)N(C)C)c(C(C)C)nn1C (stereo unspecified) | 12.7% |
| CCOCC1CN(C(=O)N2CCCC2)Cc2cnn(CC)c21 (stereo unspecified) | -4.21% |
| CC(Cn1cccn1)NC(=O)NCc1ccc(OC2CCCC2)nc1 (stereo unspecified) | 19.5% |
| O=C(Cn1ncc2ccccc21)Nc1ccnn1CC1CCOC1 (stereo unspecified) | -23.1% |
| Cc1ccc(-c2nnc(CN3CCCC(Cn4cncn4)C3)o2)cc1 (stereo unspecified) | -1.97% |
| O=C(N[C@@H]1CN(Cc2ccc3cc[nH]c3c2)C[C@H]1O)c1cnccn1 | -5.2% |
| Cc1cc(N(C)C)nc(C2COCCN2Cc2cscn2)n1 (stereo unspecified) | 18% |
| COc1cc(S(=O)(=O)Nc2cn[nH]c2)ccc1Br | -12.7% |
| CC(=O)N1CCC2(CCN(C(=O)c3ccc(F)c(C(F)(F)F)c3)C2)C1 (stereo unspecified) | -12.8% |
| Cc1nc(CN2CCN(C(=O)c3sccc3C3CC3)CC2)cs1 | -13% |
| CN(C)CCN1CC(C(=O)NCc2ccc(C#N)cc2)CC1=O (stereo unspecified) | -1.01% |
| Cn1nc2c(cc1=O)CN(Cc1nc3ccccc3c(=O)[nH]1)CC2 | -6.45% |
| Cc1noc(C)c1CN(C)C(=O)c1ccc(O)nc1 | -5.72% |

| SMILES | cytotoxicity at 70.5 h |
| --- | --- |
| CN1C(Cn2cccn2)C[C@@H]2CN(C(=O)c3cccc(C#N)c3)CC[C@@H]21 (stereo partly specified) | -7.79% |
| CCc1nnc(Nc2cccc(C3CCN(CC4CC4)CC3)n2)s1 | -7.67% |
| COc1ccc(OCCN(C)C(=O)NC(C)c2nncn2C)cc1 (stereo unspecified) | -1.05% |
| Cc1nnc2n1CCN(c1nn3cc(C(C)(C)C)nc3s1)C2 | -7.66% |
| Cc1nc(CCN(C)C(=O)C2COc3ccccc3C2)no1 (stereo unspecified) | 17.3% |
| CN1CC[C@H]2[C@H](C[C@@H](Cn3cncn3)N2c2nccs2)C1 | -8.05% |
| CO[C@H]1CCN(c2ncc(F)cn2)[C@@H]2CN(Cc3ccco3)C[C@H]12 | -6.95% |
| CC(C)C1CN(c2ncccc2Cl)CCC(=O)N1Cc1ccc(F)cc1 (stereo unspecified) | 4.1% |
| CO[C@@H]1CCN(Cc2c(C)noc2C)[C@@H]2CN(Cc3ccco3)C[C@@H]21 | -2.94% |
| COc1cc(C)c(C2CC(=O)NCc3nc4sccn4c32)cc1C (stereo unspecified) | -18% |
| CC(C)N1CCC(N2CCCC(C(=O)NCC3(O)CCCCC3)C2)CC1 (stereo unspecified) | -3.9% |
| O=C(Nc1ccccc1Cl)N1CCN(CC2CC2)[C@@H]2CS(=O)(=O)C[C@@H]21 | 16.8% |
| O=C(C1CC1)N1CCC2(CC1)CNCCO2 | 4.17% |
| CCN1C(=O)COC[C@@H]1[C@H](O)c1ccc(NC(=O)COC)cc1 | 11% |
| Cc1ccoc1C(=O)N1CC[C@H]2C[C@H](c3nnc(C4CC4)o3)O[C@@H]2C1 | -11.4% |
| COCCC(=O)N1C[C@H]2CN(Cc3cccnc3)C(=O)[C@H]2C1 | 4.13% |
| CC(C)N1[C@H](CN2CCCC2)C[C@@H]2CN(Cc3ccoc3)CC[C@@H]21 | -10% |
| COc1nc2ccn(CCc3scnc3C)c(=O)c2cc1C#N | -4.15% |
| CNc1cncc(C2CCCN2C(=O)c2ccc3oc(C)cc3c2)n1 (stereo unspecified) | -8.56% |
| COc1nc2c(cc1C(=O)N1CCCOC(CN3CCCC3)C1)CCC2 (stereo unspecified) | -13.7% |
| Cc1cnc(N2CCC3(CC2)CC3CNC(=O)C2CCC2)nc1 (stereo unspecified) | -1.64% |
| CCC[C@H]1CN(C(=O)c2cc(-c3cccs3)n(C)n2)C[C@@H]1N | -0.00623% |
| c1csc(CN2CCCn3cnc(CN4CCCC4)c3C2)c1 | -2.7% |

| SMILES | cytotoxicity at 70.5 h |
| --- | --- |
| Cc1ccc(C(=O)N2CCC3(CCC(=O)N(CCN(C)C)C3)CC2)nc1 | -3.11% |
| Cc1nc(-c2ccsc2)ccc1C(=O)NC(C)CN1CCOCC1 (stereo unspecified) | -3.57% |
| NCc1cnn(-c2ccccc2C(=O)NCCc2ccccn2)c1 | -6.02% |
| Cc1ccc(C(=O)N2CC(c3cccnc3)C2)cc1N1CCNC1=O | -7.03% |
| CCn1cnnc1C1CCN(C(=O)CC(C)n2cccc2)CC1 (stereo unspecified) | -1.21% |
| COc1cc(N(C)Cc2cc(C(C)(C)C)n[nH]2)ncn1 | 17.2% |
| O=C1CN(C(=O)c2cccc(C(F)(F)F)c2)CC(O)CN1CC1CC1 (stereo unspecified) | 20.9% |
| N#Cc1cc(C#N)c(SCCC(=O)Nc2ccc(F)cc2)nc1N | -12.6% |
| CN1CCCC(CCC(=O)N2CCc3sc(C(=O)N(C)C)cc3C2)C1 (stereo unspecified) | -5.77% |
| Cc1cnn(CC2CN(CC(=O)Nc3ccncc3)CCO2)c1 (stereo unspecified) | -5.95% |
| COCCN(C)C(C)c1cccc(S(N)(=O)=O)c1 (stereo unspecified) | 0.815% |
| Cc1noc(NC(=O)CCNC(=O)c2ccc(Br)cc2)n1 | 14.6% |
| O=C(c1ccc2c(c1)[nH]c(=O)n2C1CCCC1)N1CCSCC1 | -4.63% |
| Cc1cc(C(=O)N2CCCC3(C=Cc4ccccc4O3)CC2)cc(=O)[nH]1 (stereo unspecified) | -7.57% |
| CC1c2ncc(COc3cccnc3)n2CCN1Cc1ccco1 (stereo unspecified) | -12.4% |
| Cc1cccc(NC(=O)N2CCC(CO)(Nc3ccccc3)CC2)c1 | -5.03% |
| COc1ccc(NC(C)c2nnnn2-c2ccccc2)cc1F (stereo unspecified) | -95.4% |
| CCn1ccnc1CN1CCCN(C(=O)c2cncnc2C)CC1 | 0.803% |
| CCN1Cc2c(C(=O)NC(C)C)ncn2-c2ccccc2S1(=O)=O | -16.2% |
